Assay results published in PubChem BioAssay (NCI).
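Test compounds were applied to cells in 96-well plates for 48 hours at 5 doses. GI50: concentration for 50% inhibition of growth. The concentration for full growth arrest is given as TGI.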

Assays:
Assay in all cases: NCI-60 cell line screen, 48 h
HCT-15 colon = system: HCT-15 colon
MDA-MB-435 = system: MDA-MB-435
SR leukemia = system: SR leukemia
K-562 leukemia = system: K-562 leukemia
RXF 393 renal = system: RXF 393 renal
MOLT-4 leukemia = system: MOLT-4 leukemia
M14 melanoma = system: M14 melanoma
OVCAR-4 ovarian = system: OVCAR-4 ovarian
SK-MEL-2 melanoma = system: SK-MEL-2 melanoma
786-0 renal = system: 786-0 renal

Structure (SMILES)	GI50 (HCT-15 colon) [µM]	TGI (HCT-15 colon) [µM]	GI50 (MDA-MB-435) [µM]	TGI (MDA-MB-435) [µM]	GI50 (SR leukemia) [µM]	TGI (SR leukemia) [µM]	GI50 (K-562 leukemia) [µM]	TGI (K-562 leukemia) [µM]	GI50 (RXF 393 renal) [µM]	TGI (RXF 393 renal) [µM]	GI50 (MOLT-4 leukemia) [µM]	TGI (MOLT-4 leukemia) [µM]	GI50 (M14 melanoma) [µM]	TGI (M14 melanoma) [µM]	GI50 (OVCAR-4 ovarian) [µM]	TGI (OVCAR-4 ovarian) [µM]	GI50 (SK-MEL-2 melanoma) [µM]	TGI (SK-MEL-2 melanoma) [µM]	GI50 (786-0 renal) [µM]	TGI (786-0 renal) [µM]
CS(=O)(=O)CCNCc1nc(-c2ccc3ncnc(Nc4ccc(OCc5cccc(C(F)(F)F)c5)cc4)c3c2)cs1	> 25	> 25	> 25	> 25	> 22.2	> 25	> 25	> 25	5.57	> 25	> 25	> 25	> 25	> 25	> 25	> 25	8.7	> 22.1	> 16.5	> 25
Cn1cc(C2=C(c3cn(CCCCO)c4ccccc34)C(=O)NC2=O)c2ccccc21	7.72	> 25	8.81	> 25	6.05	21.4	9.75	> 25	3.92	10.8	7.68	> 22	16.6	> 25	13.9	> 25	7.65	21.6	8.81	> 25
Cc1ncc(C(=O)Nc2ccc(CN3CCN(C)CC3)c(C(F)(F)F)c2)cc1C#Cc1cnc(N)c2ccncc12	1.26	4.42	1.43	2.86	2.33	29.8		4.48	0.647	1.87	0.389	4.62	0.783	2.5			1.72	3.65	1.35	3.3
COc1ccc(C(=O)/C=C/c2cc(-c3cc(OC)c(OC)c(OC)c3)n[nH]2)cc1OC	1.27	2.85	1.34	2.71	0.278	> 100	1.91	7.12	1.35	2.66	2.11	5.56	1.84	3.69	2.69	16.6	1.85	3.51	1.4	2.86
CCN1CCC(O)(c2ccc(OC)cc2)C(C(=O)c2ccc(OC)cc2)C1 (centres undefined)		43.1				67.1		> 100				> 100		29.7		32.4		38.1		26.8
CCOC(=O)Nc1ccc(C)c(NC(=O)OCC)c1		> 100		> 100		> 100		> 100		> 100		> 100		> 100				> 100		> 100
COC1(OC)C(N(C)C)=C(Cl)C(=O)/C1=C/C=O		> 100				> 100		> 100				> 100		> 100		> 100				> 100
O=C(c1ccccc1Br)C(F)(F)F		> 100		> 100		> 100		> 100				> 100		> 100		> 100				> 100
N#C/C1=C(\N)CCSSSC1		98.2				> 100		> 100		> 100		> 100		95.9		> 100		90.5		> 100
COc1cc(-c2cc(-c3cc4c([nH]c5ccccc54)c(-c4cc(OC)c(OC)c(OC)c4)n3)cc(-c3ccccc3)n2)cc(OC)c1OC	3.37	> 100			3.56	> 100	3.39	> 100	2.7	12.2	4.09	41.9	3.49	> 100	5.31	74.2	2.58	6.36	7.15	> 100
CCCN1C(=O)N(CCC)C2C1NC(=S)N2/N=C/C=C/c1ccccc1OC (centres undefined)	0.537	> 100			0.326	> 35.1	0.41	> 100	0.484	85.9	0.576	> 66.2	0.455	> 100	1.95	> 100	2.08	> 63.4	0.779	> 68.8
COc1ccc(-c2nn(-c3ccc(NC(=O)c4ccc(Cl)c(Cl)c4)cc3)cc2-c2ccncc2)cc1Cl	1.09	> 11	3.97	> 50	2.29	> 50	1.76	> 30.6	0.804	1.75	2.3	> 50	1.67	> 12.9	> 14.1	> 50			1.01	2.53
Cc1ccc(NC(=O)CCc2cc(C(C)(C)C)nc(=S)[nH]2)cc1C		> 100				> 100		> 100		> 100		> 100		> 100				> 100		> 100
O=C1/C(=C/c2cccc(Cl)c2Cl)N=C(c2ccccc2)N1C1CC1	12.3	39	11.1	24.1	21.5	> 50	13.5	> 50	23.9	> 50	19.2	> 50					18.5	> 50	7.29	14.4
O=C(/C=C/c1cccc2ccccc12)c1ccccc1Cl		24.3				11.3		> 100		32.4		8.82		29.3		28.5		34.7		27.2
Oc1cccnc1[Se]		> 100		> 100		> 100		> 100		> 100		> 100		67.9				> 100		31.7
